Data taken from patent US8481489B2, “GH secretagogues and uses thereof” (Theratechnologies Inc., priority 2003, dated 2013).
Where “and” joins values, the source holds several entries; their conditions need not be identical. Identical values can stand only once. Entries after “also recorded” stand apart in the source; their conditions may differ. Marks after values point to notes of the source that are not given here.

How the values were obtained:
IGF-1 = assay: Mean IGF-1 values, influenza vaccination study; assay type: in vivo, human; conditions: 1 and 2 mg SC daily, whole 8-week treatment period
Experimental: Eighty seven (87) subjects aged 75 years in average were included in a double-bind, randomized, placebo-controlled study. TH9507 or a placebo was administered at a daily dose of 1 or 2 mg by subcutaneous injection for 8 weeks. Follow-up assessments were conducted for 12 weeks after the end of the treatment period. At week 4, in the middle of the treatment period, subjects received the commercial Canadian influenza vaccine (Vaccine Fluviral® S/F, Shire, Montreal, Canada) containing 15 μg each of A/New Caledonia/20/99, A/Panama/2007/99, B/Victoria/504/2000 antigens.
Values returned to baseline following cessation of treatment.

[1] = system: A/New Caledonia/20/99, A/Panama/2007/99, B/Victoria/504/2000 antigens; assay: Influenza antibody titers by hemaglutination inhibition assay in elderly subjects; assay type: in vivo, human
[2] = in vivo
[3] = system: HIV-infected patients with abdominal fat accumulation; assay: Abdominal VAT and SAT by cross-sectional CT, HIV lipodystrophy study; conditions: for SAT, Δ / VAT, Δ: change from baseline, Week 12, mean (SD)
Experimental: (§1) Design: Randomized, placebo-controlled, multi-center, dose ranging (placebo, 1 mg or 2 mg SC QD), parallel group, 12-week study
Patients: 61 HIV-infected patients (BMI 28±3 [SD] kg/m^2, 28% diabetic or glucose intolerant) with increased waist circumference (102 cm±8 [SD]) and waist/hip (1.0±0.1 [SD])
At the baseline visit, anthropometric measurements were obtained. Total body lean and fat mass as well as regional fat mass in the trunk and extremities were assessed by DEXA. Abdominal subcutaneous and visceral fat area and the ratio of VAT to SAT were determined by cross-sectional CT at L4-L5.
Whole body and regional DEXA (dual energy X-ray absorptiometry) and cross-sectional abdominal CT scans were performed at the individual study sites based on previously established protocols and were standardized across sites. Digitized images were sent to a central reading center, St. Lukes Roosevelt Hospital, for analysis by independent experts without knowledge of treatment assignment. Each site was given a procedure manual to follow in obtaining the body composition data and was certified in the proper technique. For the CT scans, parameters were standardized as follows: Tube Voltage=120 kV, Tube Current=250 mA, Exposure=375 mAs, matrix 512×512. DFOV was set to include the entire slice into the field of view. For the DEXA scans total body scans were performed with analysis of lean body mass, total fat mass, and regional fat mass in the trunk and extremities as previously described (16).
Body composition endpoints included trunk fat and trunk to limb fat ratio by DEXA and VAT and VAT:SAT by CT scan. […] Baseline data are compared between the groups by F-test based on ANOVA for continuous variables and Chi-Square test for categorical variables. Change over time between groups is compared by ANOVA or the Chi-Square test. Where appropriate, data were rank transformed prior to analysis. Changes within each group are determined by t-test. The ITT (intent to treat) population is defined as all subjects who received at least one dose of the study treatment. Descriptive statistics and analyses for all efficacy and safety analyses are performed on the ITT population. End of study, 12 week, data are used to calculate changes in body composition. […] Imputation for missing data is not performed. For body composition, end of study data are used to calculate change. […] Results are mean (SD) unless otherwise noted. All statistical tests were performed with a two-sided Type I error level of 0.05.

[4] = system: HIV-infected patients with abdominal fat accumulation; assay: Quality of life questionnaire (PLC), HIV lipodystrophy study; assay type: in vivo, human
Experimental: A health-related quality of life questionnaire (PLC, Quality of Life Profile for the Chronically Ill) was self-administered to 61 patients randomized to receive placebo or TH9507 at 1 or 2 mg s.c. daily. The PLC questionnaire included a general, non-specific part assessing 6 dimensions of global health as well as a disease specific part capturing impact of enlarged abdominal girth, abdominal bloating, tenseness and pain, as well as diarrhea, visible facial changes, visible changes in physical appearance, and the feeling of being recognized as an HIV positive person.
Study population included 54 men and 7 women. […] Slight changes were observed within the treated groups in the positive mood and social well-being scores but were not considered clinically significant.

IGF-1 and IGFBP-3 = assay: Serum IGF-1 and IGFBP-3 (RIA), HIV lipodystrophy study; conditions: change from baseline, Week 12, mean (SD)
Experimental: as §1
At the baseline visit, anthropometric measurements were obtained. […] Biochemical parameters including insulin-like growth factor-I, glucose, insulin, lipid profile (cholesterol, HDL, LDL, triglyceride, non HDL and the ratio of cholesterol:HDL), free fatty acids, HbA1C, IGFBP-3, and bone markers (serum osteocalcin and NTX-1), CD4, viral load, and a pregnancy test for female subjects were determined in the fasting state. In addition, insulin and glucose response to a 75 gram standard glucose challenge were assessed and a quality of life questionnaire was administered.
Clinical laboratory testing was performed by a central lab. Serum IGF-1 was measured after acid-ethanol extraction using the Esoterix RIA kit (Esoterix Inc., Calabasas Hill, Calif.), with a sensitivity of 10 ng/mL. Intra- and inter-assay coefficients of variation were 4.6-20% and 9-10%, respectively. Serum IGFBP-3 was measured using the Esoterix RIA kit (Esoterix Inc., Calabasas Hill, Calif.) with a sensitivity of 0.3 mg/mL. Intra- and inter-assay coefficients of variation were 5.1-13% and 5.5-17%, respectively. HDL, LDL, total cholesterol, triglycerides and FFA were determined by enzymatic calorimetric assay. Glucose was measured by enzymatric test (Gluco-Quant®, Roche diagnostics, Indianapolis, Ind.). HbA1c was determined by chromatography.
Other endpoints included IGF-I, lipid parameters, glucose and insulin, CD4, viral load, bone markers, and quality of life. A sample size of 20 patients/group was planned to assess a statistically significant change of 10% or more in intra-group analyses. The planned dropout rate was 25% and therefore 60 patients were enrolled into the study. Baseline data are compared between the groups by F-test based on ANOVA for continuous variables and Chi-Square test for categorical variables. Change over time between groups is compared by ANOVA or the Chi-Square test. Where appropriate, data were rank transformed prior to analysis. Changes within each group are determined by t-test. The ITT (intent to treat) population is defined as all subjects who received at least one dose of the study treatment. Descriptive statistics and analyses for all efficacy and safety analyses are performed on the ITT population. End of study, 12 week, data are used to calculate changes in body composition. For biochemical indices, the last observation available is used to calculate change. Imputation for missing data is not performed. For body composition, end of study data are used to calculate change. Interim analyses were not performed. Results are mean (SD) unless otherwise noted. All statistical tests were performed with a two-sided Type I error level of 0.05.

[5] = system: type II diabetic patients; conditions: patients with Type II DM, daily dose up to 2 mg; reference (15); cited from earlier work
[6] = system: patients exhibiting sleep maintenance insomnia; assay: Continuous Performance Test (CPT), 14-day study in sleep maintenance insomnia; assay type: in vivo, human; conditions: 14 days
Experimental: Patients were selected based on the Pittsburgh Sleep Quality Index (Score ≧5), the Walters Criteria for Sleep Maintenance Insomnia, and the Beck Questionnaire (Score ≦17). The primary exclusion criteria were other primary sleep disorders and the use of any products affecting sleep or vigilance in the 30 days prior to entering the study.
The study was a randomized, double-blind, placebo-controlled, parallel group and multicenter evaluation of two doses of TH9507 (0.1 mg and 1 mg) administered daily by subcutaneous injection at bedtime for 14 consecutive days. To evaluate vigilance and the performance in the morning, patients underwent a battery of cognitive tests including the Continuous Performance Test (CPT) at baseline and at the end of treatment period.
The CPT has been described in the literature as a measure of consistency in responding and ability to sustain attention over time (Aleman A, et al., J Clin Endocrinol Metab 1999 84(2):471-475). This test required subjects to press space bar each time the letter “A” was followed by “X”. Omission and commission errors, and Mean Reaction Time of correct responses were analyzed.

[7] = system: antigen-specific proliferative T cell response; assay type: in vivo, human; conditions: 2 mg SC daily 8 weeks; week 0 to week 20; Panama, New Caledonia, Victoria

CC/C=C/CC(=O)N[C@@H](Cc1ccc(O)cc1)C(=O)N[C@@H](C)C(=O)N[C@@H](CC(=O)O)C(=O)N[C@@H](C)C(=O)N[C@H](C(=O)N[C@@H](Cc1ccccc1)C(=O)N[C@H](C(=O)N[C@@H](CC(N)=O)C(=O)N[C@@H](CO)C(=O)N[C@@H](Cc1ccc(O)cc1)C(=O)N[C@@H](CCCNC(=N)N)C(=O)N[C@@H](CCCCN)C(=O)N[C@H](C(=O)N[C@@H](CC(C)C)C(=O)NCC(=O)N[C@@H](CCC(N)=O)C(=O)N[C@@H](CC(C)C)C(=O)N[C@@H](CO)C(=O)N[C@@H](C)C(=O)N[C@@H](CCCNC(=N)N)C(=O)N[C@@H](CCCCN)C(=O)N[C@@H](CC(C)C)C(=O)N[C@@H](CC(C)C)C(=O)N[C@@H](CCC(N)=O)C(=O)N[C@@H](CC(=O)O)C(=O)N[C@H](C(=O)N[C@@H](CCSC)C(=O)N[C@@H](CO)C(=O)N[C@@H](CCCNC(=N)N)C(=O)N[C@@H](CCC(N)=O)C(=O)N[C@@H](CCC(N)=O)C(=O)NCC(=O)N[C@@H](CCC(=O)O)C(=O)N[C@@H](CO)C(=O)N[C@@H](CC(N)=O)C(=O)N[C@@H](CCC(N)=O)C(=O)N[C@@H](CCC(=O)O)C(=O)N[C@@H](CCCNC(=N)N)C(=O)NCC(=O)N[C@@H](C)C(=O)N[C@@H](CCCNC(=N)N)C(=O)N[C@@H](C)C(=O)N[C@@H](CCCNC(=N)N)C(=O)N[C@@H](CC(C)C)C(N)=O)[C@@H](C)CC)C(C)C)[C@@H](C)O)[C@@H](C)CC [TH9507, (hexenoyl trans-3)hGRF(1-44)NH2]
mean IGF-1 values vs baseline (IGF-1): dose-related increase | percentage of subjects with protective antibody level ([1]; Panama and New Caledonia strains): No statistical difference | proportion of patients achieving a protective antibody level vs placebo ([1]; Victoria antigen, statistically significant at 2 mg, weeks 6-20): increased | Anti-TH9507 antibodies [2]: not detected | Blood pressure and heart rate [2]: did not change | Safety laboratory values, including hemoglobin, WBC, LFT's, creatinine [2]: did not differ | Visceral fat (VAT) change ([3]; 1 mg SC QD, 12 weeks): −3.6% | SAT, Δ ([3]; 1 mg SC QD): 6.8 (21.2) cm^2 | VAT, Δ ([3]; 1 mg SC QD): −11.9 (28.7) cm^2 | Visceral fat (VAT) change ([3]; 2 mg SC QD, 12 weeks): −15.7% | SAT, Δ ([3]; 2 mg SC QD): 4.4 (19.8) cm^2 | VAT, Δ ([3]; 2 mg SC QD): −21.5 (27.9)* cm^2 | Visceral fat decrease within group ([3]; 2 mg, over 3 months): more than 15% | subcutaneous fat (SAT) ([3]; 1 and 2 mg SC QD, 12 weeks, between or within groups): preserved; also recorded: did not change significantly | abdominal pain (PLC) ([4]; 1 mg only, P<0.05 vs baseline, NS vs placebo): Improvement | bloating score change (PLC) ([4]; 1 mg s.c. daily): −0.50 | enlarged abdominal girth score change (PLC) ([4]; 1 mg s.c. daily): −0.93 | tenseness (PLC) ([4]; 1 mg, P=0.07 vs baseline, NS vs placebo): trend for improvement | bloating score change (PLC) ([4]; 2 mg s.c. daily): −0.69 | enlarged abdominal girth score change (PLC) ([4]; 2 mg s.c. daily): −1.19 | subscales of the main portion of the PLC, between groups ([4]; 1 or 2 mg s.c. daily): No significant difference | IGF-1, Δ (IGF-1 and IGFBP-3; 1 mg SC QD): 87 (67) ng/mL and 87.5 (66.9)* ng/mL | IGFBP-3, Δ (IGF-1 and IGFBP-3; 1 mg SC QD): 0.6 (0.7)* Mg/L | IGF-1, Δ (IGF-1 and IGFBP-3; 2 mg SC QD): 123 (79) ng/mL and 122.6 (79.1)* ng/mL | IGFBP-3, Δ (IGF-1 and IGFBP-3; 2 mg SC QD): 0.6 (0.5)* Mg/L | overall glycemic control [5]: not shown to aggravate overall glycemic control | Mean Reaction Time of the CPT, decrease from baseline ([6]; 0.1 mg SC daily at bedtime, baseline to day 9): 45.85 ms | Mean Reaction Time of the CPT vs placebo ([6]; 1 mg SC daily at bedtime): No significant effect | mean AUC of antigen-specific proliferative T cell response vs placebo [7]: statistically higher
